Measured values as given in patent publication US8030511B2, “Method for the manufacture of therapeutic compounds and compositions, compounds and compositions produced therewith, and their use” (priority 2006, dated 2011).

Experiments:
[1] = Intravenous infusion of NO dissolved in liquid medium in L-NAME pre-treated rabbit; format: in vivo
Procedure: Experiments were approved by the local ethics committee on animal experimentation. A male New Zealand white rabbit was anesthetised, prepared and examined as in the protocol presented in Example 2. The rabbit was pre-treated with L-NAME (30 mg kg^−1) and received one infusion with NO-gas dissolved in normal saline and one with NO-gas dissolved in lipid emulsion ([…]®, Fresenius Kabi) through the catheter in the jugular vein without carrier flow. The infusion rate was for both liquids 0.5 ml kg^−1 min^−1. There was a recovery period between the two infusions for about 200 min.
The infusion liquids were created the same way. First the liquid was de-aerated for 20 min, in a gas-tight glass chamber with a rubber membrane with an inert gas; in this case helium gas, but nitrogen, argon etc could also be used. After this no oxygen were allowed to enter the liquid throughout the following procedure. The liquid was then purged with pure NO of a few minutes. The liquid was then collected through the rubber membrane in a gas-tight syringe with needle and from this syringe infused by means of syringe pump (864 Syringe Pump, Univentor LTD., Zejtun, Malta) in the jugular vein catheter.

[2] = HPLC of commercial organic nitrites diluted in deoxygenated water versus NO-saturated water; format: physicochemical; conditions: for size of HPLC peak (UV max 225 nm), dilution in de-aerated NO saturated solutions: Novapak C8 or CN column
Procedure: Analysis of reaction mixtures and commercial organic nitrites and nitrates was made by high performance liquid chromatography (HPLC) using reverse phase chromatography on C8, C18 or CN columns (Waters Inc. NOVAPAK™ 4 μm particle size 8×100 mm radial compression columns) by means of two LDC Constametric pumps delivering a constant total flow of 1 ml per min, controlled by a computerized gradient control system generating a linear gradient of 0-100% methanol (elution solvent B) in 33 min, starting 1 min after injecting sample in the aqueous initial elution solvent (solvent A) which contained 5 mM ammonium formiate at pH 6. Separation of eluted compounds was determined by an LDC Spectromonitor variable UV monitor set at 210 nm, followed by a Pharmacia Wavescan wavelength scanning detector producing UV scans between 190 and 370 nm at 4 s intervals which were stored on a computer and analyzed after each HPLC run. The output from the LDC Spectromonitor was continuously recorded on a strip chart recorder.
HPLC: On all three Novapak columns and on the Thermo column a single peak of product, from the reaction between propanol and NO gas, eluted at a gradient concentration of 70-80% methanol. In the NOVAPAK C18 system this corresponded to an elution time of approximately 28 min (FIG. 12, panel C). […] When a standard sample of propyl nitrite (Karl Industries Inc., Aurora, Ohio, USA) diluted in a gas-type cylinder in deoxygenated (10 min He purging) water at 1:1000 was injected, a small peak at 28 min was obtained (FIG. 12, panel A), having an identical UV absorbance max at 225 nm. […] Similar results were obtained on the C8 and CN columns, a single retained peak was obtained from the reaction mixture consisting of propanol and NO, although at somewhat shorter retention times, compared with the C18 system.
Commercial samples of ethyl nitrite, butyl nitrite, and isobutyl nitrite (Sigma-Aldrich) were diluted anaerobically as above and injected onto the HPLC system, using either the Novapak C8 or CN column. Peaks with UV absorbance maxima of approximately 225 nm were obtained in all the samples, but at different retention times corresponding to the expected differences judged from the lipophilic chain length of the compounds. All these peaks were larger if the dilution of the organonitrite had been done in de-aerated NO saturated solutions. The respective peaks with UV max at 225 nm coincided with single similar peaks obtained by treating the corresponding alcohol (ethanol, butanol, isobutanol) with NO gas. This was taken as evidence that the corresponding organic mononitrite had formed.

[3] = Cederqvist et al., 1994; cited from earlier work
[4] = Verification of NO donating capacity (1% sodium iodide in hot acetic acid, chemiluminescence); format: physicochemical
Excerpt: Samples of eluents from the HPLC system were collected and analyzed for NO/nitrite content by injection into a reaction vessel containing 1% sodium iodide in hot acetic acid. Released nitric oxide was purged into a chemiluminescence analyzer system optimized for detection of nitric oxide by chemiluminescence reaction with ozone and determination of NO+ozone-generated excited NO2 product through counting of emitted photons.

venous gas embolism = assay: Treatment of venous gas embolism in an animal with inhibited NO production; format: in vivo
Excerpt: The beneficial effects may be induction of vasodilation in the pulmonary vasculature, inhibition of aggregation of trombocytes and/or minor vasodilation in the whole or parts of the systemic circulation, for example in the coronary circulation.

[5] = before 30 mg kg^−1 throughout 10 min

In the case of `COC(=O)[C@@H](N)CCCNC(=N)N[N+](=O)[O-]` [L-NAME, N^G-nitro-L-arginine methyl ester], the “exhaled nitric oxide after L-NAME infusion” value ([1]; 30 mg kg^−1 throughout 10 min) is reported as under 1 ppb, the “heart rate (HR) after L-NAME infusion” value ([1]; 30 mg kg^−1 throughout 10 min) is reported as 258 beats min^−1 and the “systemic mean arterial blood pressure (MAP) after L-NAME infusion” value ([1]; 30 mg kg^−1 throughout 10 min) is reported as 128 cmH2O. The “End-tidal CO2 and the relevant blood gas parameters” value ([1]; L-NAME 30 mg kg^−1 throughout 10 min) was “normal”, the “exhaled nitric oxide before L-NAME infusion” value [1, 5] was 19 ppb and the “heart rate (HR) before L-NAME infusion” value [1, 5] was 274 beats min^−1. The “systemic mean arterial blood pressure (MAP) before L-NAME infusion” value [1, 5] was 103 cmH2O.
For `CCON=O` [ethyl nitrite], the “size of HPLC peak (UV max 225 nm), dilution in de-aerated NO saturated solutions” value (“size … in de-aerated NO saturated solutions” for short) [2] is listed as “larger” and the “generation of NO in vivo” value [3] is listed as “generate NO”.
In the case of `CC(C)CO[N+](=O)[O-]` [isobutyl nitrate], the “generation of NO in vivo” value [3] is given as “generate NO”.
In the case of `CC(C)CON=O` [isobutyl nitrite], the “size … in de-aerated NO saturated solutions” value [2] is listed as “larger” and the “generation of NO in vivo” value [3] is listed as “generate NO”.
For `CCCCON=O` [butyl nitrite], the “size … in de-aerated NO saturated solutions” value [2] is listed as “larger” and the “generation of NO in vivo” value [3] is listed as “generate NO”.
In the case of `O=[N+]([O-])OCC(CO[N+](=O)[O-])O[N+](=O)[O-]` [Nitroglycerin, glyceryl trinitrate], the “release of NO by mild reduction treatment” value [4] is given as “did not yield a release of NO” and the “generation of NO in vivo” value [3] is given as “generate NO”.
For `CC(C)CCON=O` [isoamyl nitrite], the “generation of NO in vivo” value [3] is listed as “generate NO”.
For `CCCON=O` [propyl nitrite], the “size of 28 min HPLC peak, dilution in water saturated with NO gas vs deoxygenated water” value ([2]; dilution 1:1000, Novapak C18) was 5-10 times.
For `[N]=O` [inhaled nitric oxide, nitric oxide], the “treatment of venous gas embolism” value (venous gas embolism) was “impossible to treat”.
